How the values were obtained:
[1] = biological target: Serine/threonine-protein kinase 24 (Homo sapiens) (UniProt Q9Y6E0); test: Inhibition of MST3 (unknown origin) assessed as residual activity at 100 nM by KINOMEscan analysis relative to control
[2] = biological target: T1, Serine/threonine-protein kinase D1 (Homo sapiens) (UniProt Q15139); test: Inhibition of PRKD1 (unknown origin) assessed as residual activity at 100 nM by KINOMEscan analysis relative to control
T1 sequence (whole entry): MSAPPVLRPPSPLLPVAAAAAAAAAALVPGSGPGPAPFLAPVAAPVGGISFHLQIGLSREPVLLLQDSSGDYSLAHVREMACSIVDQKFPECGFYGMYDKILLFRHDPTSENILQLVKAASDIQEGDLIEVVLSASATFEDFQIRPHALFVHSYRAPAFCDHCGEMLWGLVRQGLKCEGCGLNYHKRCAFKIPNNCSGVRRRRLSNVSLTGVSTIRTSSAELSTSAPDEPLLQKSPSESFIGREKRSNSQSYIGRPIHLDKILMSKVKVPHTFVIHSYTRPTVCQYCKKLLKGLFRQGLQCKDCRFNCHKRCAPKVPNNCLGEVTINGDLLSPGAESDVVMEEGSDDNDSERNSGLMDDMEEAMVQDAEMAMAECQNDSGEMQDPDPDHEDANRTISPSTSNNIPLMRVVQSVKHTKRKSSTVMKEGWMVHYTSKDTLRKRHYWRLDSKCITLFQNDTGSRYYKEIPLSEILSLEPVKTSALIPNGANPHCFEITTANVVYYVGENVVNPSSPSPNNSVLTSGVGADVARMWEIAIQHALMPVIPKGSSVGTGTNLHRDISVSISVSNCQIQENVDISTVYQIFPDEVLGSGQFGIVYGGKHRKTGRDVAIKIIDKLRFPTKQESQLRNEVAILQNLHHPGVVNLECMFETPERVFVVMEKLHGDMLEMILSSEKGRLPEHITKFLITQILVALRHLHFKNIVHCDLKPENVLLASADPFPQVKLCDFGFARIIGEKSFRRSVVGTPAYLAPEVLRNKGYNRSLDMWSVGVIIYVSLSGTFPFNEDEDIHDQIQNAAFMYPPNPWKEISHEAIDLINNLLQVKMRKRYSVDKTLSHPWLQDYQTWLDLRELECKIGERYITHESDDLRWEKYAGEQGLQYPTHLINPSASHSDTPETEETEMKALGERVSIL

[3] = biological target: Serine/threonine-protein kinase 16 (Homo sapiens) (UniProt O75716); test: Inhibition of STK16 (unknown origin) assessed as residual activity at 100 nM by KINOMEscan analysis relative to control
Chain of Serine/threonine-protein kinase 16 (Homo sapiens) (O75716 whole entry): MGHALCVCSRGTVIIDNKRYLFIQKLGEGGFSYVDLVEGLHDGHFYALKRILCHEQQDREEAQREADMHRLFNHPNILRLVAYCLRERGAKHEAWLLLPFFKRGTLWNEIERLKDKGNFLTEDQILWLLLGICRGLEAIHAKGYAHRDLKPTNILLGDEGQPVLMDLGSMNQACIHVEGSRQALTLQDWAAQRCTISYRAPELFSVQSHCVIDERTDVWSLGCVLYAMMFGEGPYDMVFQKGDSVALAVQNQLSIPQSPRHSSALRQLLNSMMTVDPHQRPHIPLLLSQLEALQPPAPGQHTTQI

[4] = biological target: T2, Serine/threonine-protein kinase 3 (Homo sapiens) (UniProt Q13188); test: Inhibition of MST2 (unknown origin) assessed as residual activity at 100 nM by KINOMEscan analysis relative to control
T2 sequence (whole entry): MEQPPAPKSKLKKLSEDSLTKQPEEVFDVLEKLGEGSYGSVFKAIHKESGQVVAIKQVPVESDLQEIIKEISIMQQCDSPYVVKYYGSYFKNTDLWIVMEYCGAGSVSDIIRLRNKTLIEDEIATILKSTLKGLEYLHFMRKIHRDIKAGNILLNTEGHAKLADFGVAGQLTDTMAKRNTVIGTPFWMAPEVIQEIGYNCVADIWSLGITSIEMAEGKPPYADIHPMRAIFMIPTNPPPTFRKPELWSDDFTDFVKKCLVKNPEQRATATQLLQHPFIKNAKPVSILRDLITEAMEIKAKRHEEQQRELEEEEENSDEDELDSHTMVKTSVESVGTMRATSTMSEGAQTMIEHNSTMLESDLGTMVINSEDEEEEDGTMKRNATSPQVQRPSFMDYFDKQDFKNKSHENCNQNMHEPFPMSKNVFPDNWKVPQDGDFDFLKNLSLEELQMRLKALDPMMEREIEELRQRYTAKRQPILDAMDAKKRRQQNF

[5] = biological target: T3, Mitogen-activated protein kinase 13 (Homo sapiens) (UniProt O15264); test: Inhibition of p38-delta (unknown origin) assessed as residual activity at 100 nM by KINOMEscan analysis relative to control
T3 sequence (whole entry): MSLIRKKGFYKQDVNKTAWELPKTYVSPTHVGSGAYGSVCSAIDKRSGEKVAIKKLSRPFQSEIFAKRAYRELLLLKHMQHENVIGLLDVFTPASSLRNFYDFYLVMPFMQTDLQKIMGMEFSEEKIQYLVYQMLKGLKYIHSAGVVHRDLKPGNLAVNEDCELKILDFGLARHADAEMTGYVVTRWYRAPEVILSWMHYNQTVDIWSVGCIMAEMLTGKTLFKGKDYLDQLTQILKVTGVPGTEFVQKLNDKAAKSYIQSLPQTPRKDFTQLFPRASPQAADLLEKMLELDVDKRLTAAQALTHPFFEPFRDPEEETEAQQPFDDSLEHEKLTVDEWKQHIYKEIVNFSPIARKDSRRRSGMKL

[6] = biological target: Mitogen-activated protein kinase 7 (Homo sapiens) (UniProt Q13164); test: Inhibition of ERK5 (unknown origin) assessed as residual activity at 100 nM by KINOMEscan analysis relative to control
Chain of Mitogen-activated protein kinase 7 (Homo sapiens) (Q13164 2-816 limits assumed): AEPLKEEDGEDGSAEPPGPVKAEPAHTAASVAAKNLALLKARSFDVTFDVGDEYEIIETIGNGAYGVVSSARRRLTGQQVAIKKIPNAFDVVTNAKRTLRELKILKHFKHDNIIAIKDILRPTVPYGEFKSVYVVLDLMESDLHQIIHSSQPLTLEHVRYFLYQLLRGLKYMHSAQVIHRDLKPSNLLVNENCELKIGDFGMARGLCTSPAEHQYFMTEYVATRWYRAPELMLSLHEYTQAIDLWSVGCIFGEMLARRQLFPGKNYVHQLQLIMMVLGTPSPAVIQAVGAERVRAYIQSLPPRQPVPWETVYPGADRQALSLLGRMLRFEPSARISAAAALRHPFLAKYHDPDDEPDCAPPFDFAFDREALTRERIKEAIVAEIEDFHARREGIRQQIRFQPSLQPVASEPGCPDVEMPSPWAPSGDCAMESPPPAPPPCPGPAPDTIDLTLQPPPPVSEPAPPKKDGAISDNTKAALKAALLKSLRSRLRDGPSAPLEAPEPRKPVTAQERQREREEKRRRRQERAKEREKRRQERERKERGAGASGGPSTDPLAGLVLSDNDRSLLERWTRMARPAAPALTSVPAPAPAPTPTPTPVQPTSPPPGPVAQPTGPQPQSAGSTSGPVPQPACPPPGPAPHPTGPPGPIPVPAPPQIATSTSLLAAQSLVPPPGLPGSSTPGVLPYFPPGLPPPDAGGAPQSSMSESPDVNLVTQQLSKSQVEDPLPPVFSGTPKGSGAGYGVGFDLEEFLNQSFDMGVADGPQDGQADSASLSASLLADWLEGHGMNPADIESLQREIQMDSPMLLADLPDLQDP

[7] = biological target: Serine/threonine-protein kinase MRCK gamma (Homo sapiens) (UniProt Q6DT37); test: Inhibition of DMPK2 (unknown origin) assessed as residual activity at 100 nM by KINOMEscan analysis relative to control
Chain of Serine/threonine-protein kinase MRCK gamma (Homo sapiens) (Q6DT37 whole entry): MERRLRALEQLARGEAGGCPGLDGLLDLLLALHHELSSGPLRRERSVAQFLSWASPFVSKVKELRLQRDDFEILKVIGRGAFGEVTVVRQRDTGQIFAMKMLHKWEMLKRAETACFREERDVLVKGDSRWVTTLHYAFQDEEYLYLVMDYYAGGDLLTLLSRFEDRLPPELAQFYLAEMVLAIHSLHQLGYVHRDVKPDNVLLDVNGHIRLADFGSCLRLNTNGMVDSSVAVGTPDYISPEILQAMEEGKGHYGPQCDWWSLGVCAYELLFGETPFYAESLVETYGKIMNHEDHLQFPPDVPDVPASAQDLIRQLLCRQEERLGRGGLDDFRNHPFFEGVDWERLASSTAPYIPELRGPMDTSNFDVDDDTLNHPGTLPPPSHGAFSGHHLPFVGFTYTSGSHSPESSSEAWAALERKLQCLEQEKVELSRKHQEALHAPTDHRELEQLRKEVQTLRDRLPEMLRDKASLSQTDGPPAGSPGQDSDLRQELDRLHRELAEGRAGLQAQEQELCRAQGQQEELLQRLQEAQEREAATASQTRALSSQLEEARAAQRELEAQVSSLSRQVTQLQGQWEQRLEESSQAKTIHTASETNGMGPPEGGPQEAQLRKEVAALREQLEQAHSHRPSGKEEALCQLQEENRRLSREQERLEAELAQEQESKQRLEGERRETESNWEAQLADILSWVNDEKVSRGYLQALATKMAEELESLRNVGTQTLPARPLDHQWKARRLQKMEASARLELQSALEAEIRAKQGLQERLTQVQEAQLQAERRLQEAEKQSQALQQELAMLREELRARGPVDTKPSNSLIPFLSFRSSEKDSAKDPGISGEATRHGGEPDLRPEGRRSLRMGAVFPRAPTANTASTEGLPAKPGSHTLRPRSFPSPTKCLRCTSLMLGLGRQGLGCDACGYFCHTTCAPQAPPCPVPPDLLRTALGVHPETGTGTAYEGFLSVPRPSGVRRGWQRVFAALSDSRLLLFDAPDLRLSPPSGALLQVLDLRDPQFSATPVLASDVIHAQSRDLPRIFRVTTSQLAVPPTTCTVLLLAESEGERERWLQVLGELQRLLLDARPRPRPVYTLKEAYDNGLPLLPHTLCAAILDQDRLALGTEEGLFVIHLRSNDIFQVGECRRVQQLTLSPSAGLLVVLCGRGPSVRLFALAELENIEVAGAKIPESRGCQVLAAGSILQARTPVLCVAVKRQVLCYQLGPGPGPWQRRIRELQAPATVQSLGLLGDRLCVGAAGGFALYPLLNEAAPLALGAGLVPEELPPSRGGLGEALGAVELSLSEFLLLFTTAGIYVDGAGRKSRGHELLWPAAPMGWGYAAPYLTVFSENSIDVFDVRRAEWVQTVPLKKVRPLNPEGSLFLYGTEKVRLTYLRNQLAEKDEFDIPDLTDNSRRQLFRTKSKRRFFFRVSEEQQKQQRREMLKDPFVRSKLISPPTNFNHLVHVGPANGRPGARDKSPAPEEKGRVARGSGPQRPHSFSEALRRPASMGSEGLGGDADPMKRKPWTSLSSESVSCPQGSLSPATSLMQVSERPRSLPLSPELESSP

[8] = biological target: T4, Inhibitor of nuclear factor kappa-B kinase subunit beta (Homo sapiens) (UniProt O14920); test: Inhibition of IKK-beta (unknown origin) assessed as residual activity at 100 nM by KINOMEscan analysis relative to control
T4 sequence (whole entry): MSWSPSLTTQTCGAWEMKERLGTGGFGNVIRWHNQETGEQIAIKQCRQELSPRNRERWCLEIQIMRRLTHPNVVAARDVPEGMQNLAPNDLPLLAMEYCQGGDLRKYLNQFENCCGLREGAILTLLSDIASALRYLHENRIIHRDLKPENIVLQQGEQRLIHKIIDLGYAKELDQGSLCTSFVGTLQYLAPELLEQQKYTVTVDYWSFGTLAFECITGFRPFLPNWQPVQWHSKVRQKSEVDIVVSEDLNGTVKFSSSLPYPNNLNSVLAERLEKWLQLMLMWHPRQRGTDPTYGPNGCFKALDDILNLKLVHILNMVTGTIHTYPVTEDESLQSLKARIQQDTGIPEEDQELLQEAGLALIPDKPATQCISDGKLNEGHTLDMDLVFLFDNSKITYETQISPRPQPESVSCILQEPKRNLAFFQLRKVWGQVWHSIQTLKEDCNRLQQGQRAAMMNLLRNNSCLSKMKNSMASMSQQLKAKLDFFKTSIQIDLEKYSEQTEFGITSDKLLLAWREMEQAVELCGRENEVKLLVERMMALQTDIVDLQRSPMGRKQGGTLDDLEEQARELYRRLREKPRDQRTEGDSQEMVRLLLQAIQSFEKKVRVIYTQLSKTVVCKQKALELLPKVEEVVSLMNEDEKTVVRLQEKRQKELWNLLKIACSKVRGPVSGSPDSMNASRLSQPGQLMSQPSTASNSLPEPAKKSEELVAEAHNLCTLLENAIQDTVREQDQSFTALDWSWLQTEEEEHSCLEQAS

Chain of Serine/threonine-protein kinase 24 (Homo sapiens) (Q9Y6E0 whole entry, looked up): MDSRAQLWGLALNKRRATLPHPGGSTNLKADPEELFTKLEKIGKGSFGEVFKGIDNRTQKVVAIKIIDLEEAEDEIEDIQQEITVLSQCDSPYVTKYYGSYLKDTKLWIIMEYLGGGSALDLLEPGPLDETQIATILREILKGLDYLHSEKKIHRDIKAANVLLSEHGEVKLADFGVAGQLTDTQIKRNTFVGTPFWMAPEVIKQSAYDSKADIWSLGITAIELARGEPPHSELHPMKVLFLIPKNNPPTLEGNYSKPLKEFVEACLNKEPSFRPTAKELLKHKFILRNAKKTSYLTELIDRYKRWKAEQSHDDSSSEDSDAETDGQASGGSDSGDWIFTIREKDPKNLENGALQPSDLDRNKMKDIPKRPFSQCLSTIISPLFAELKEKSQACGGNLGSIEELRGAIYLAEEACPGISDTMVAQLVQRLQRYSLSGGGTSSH

In the case of COc1cc2ncnc(N[C@H](C)c3cccc4ccccc34)c2cc1OC, the Activity [1] was 99%, the Activity [2] was 84% and the Activity [3] was 93%. The Activity [4] was 92%, the Activity [5] was 100% and the Activity [6] was 84%. It also gave an Activity [7] of 33% and an Activity [8] of 84%.
